Compound: CCOC(=O)c1ccc(O)cc1
- solubility (mole fraction) (in acetonitrile, 278.15 K): 0.0703
- solubility (mole fraction) (in acetonitrile, 283.15 K): 0.0822
- solubility (mole fraction) (in acetonitrile, 288.15 K): 0.0995
- solubility (mole fraction) (in acetonitrile, 293.15 K): 0.121
- solubility (mole fraction) (in acetonitrile, 298.15 K): 0.148
- solubility (mole fraction) (in acetonitrile, 303.15 K): 0.178
- solubility (mole fraction) (in acetonitrile, 308.15 K): 0.214
- solubility (mole fraction) (in acetonitrile, 313.15 K): 0.252
- solubility (mole fraction) (in acetonitrile, 318.15 K): 0.293
- solubility (mole fraction) (in water, 278.15 K): 2.62e-05
- solubility (mole fraction) (in water, 283.15 K): 3.64e-05
- solubility (mole fraction) (in water, 288.15 K): 5.25e-05
- solubility (mole fraction) (in water, 293.15 K): 7.52e-05
- solubility (mole fraction) (in water, 298.15 K): 9.7e-05
- solubility (mole fraction) (in water, 303.15 K): 0.000119
- solubility (mole fraction) (in water, 308.15 K): 0.000145
- solubility (mole fraction) (in water, 313.15 K): 0.000169
- solubility (mole fraction) (in water, 318.15 K): 0.000192

Source: BigSolDB 2.1
